Data: US5206435A, “4-amino-2-cyclopentene-1-methanol” (priority 1988, dated 1993)
“Also recorded” adds a separate entry of the source.

Legend:
[1] = penetration of the blood-brain barrier upon administration; format: in vivo
HBV [2] = assay: activity against HBV infections (general statement); set-up: species or system hepatitis B virus
HIV [3] = assay: activity against HIV infections (general statement)
[4] = system: bone marrow progenitor cells; assay: toxicity against bone marrow progenitor cells; format: cell-based; conditions: compared with 3'-azido-3'-deoxythymidine (zidovudine)
HIV [5] = assay: anti-HIV activity in MT4 cells; format: cell-based; conditions: Human immunodeficiency virus 1, average of 10 determinations
Procedure: (1S,4R)-cis-4-[2-amino-6-(cyclopropylamino)-9H-purin-9-yl]-2-cyclopentene-1-methanol was tested for anti-HIV activity in MT4 cells according to the method described by Averett, D. R., J. Virol.

HBV [6] = assay: anti-HBV activity in the human HBV producer cell line of HepG2, 2.2.15; format: cell-based, hepatitis B virus; conditions: at 100 μM; HepG2, 2.2.15 cells
Procedure: The human HBV producer cell line of HepG2,2.2.15, described and characterised by Sells et al., PNAS 84: 1005, 1987 and J.Virol.
To test compounds for anti-HBV activity, monolayer cultures were treated with the test compound: 50-200 μM for ten days. Supernatant media containing extracellular virion DNA (Dane particles) were harvested on days three, six and ten, treated with proteinase K (1 mg/mL) and sodium dodecyl sulfate (1%), and incubated at 50° C. for one hour. DNA was extracted with equal volumes of phenol followed by chloroform and then precipitated by ammonium acetate and propanol. The DNA precipitate was dissolved and collected on nitrocellulose using the procedure of Schleicher and Schuell (S&S, 10 Optical Ave., Keene, N.H. 03431, Publication #700, 1987), and treated as described by Southern, J.Mol.Biol., 98, 503, 1975. […] After precipitation by ammonium acetate and propanol, the intracellular DNA precipitate was dissolved, cut by restriction endonuclease, Hind III, applied to agarose gel and then treated as described by Southern to determine the quantity of replicative intermediate forms. The antiviral effect of the drug was determined by measuring at least a 100-fold reduction of the amount of Dane particles extruded into the culture medium and a similar decrease in the intracellular replicative intermediates.

Row | Structure (SMILES) | blood-brain barrier penetration [1] | levels of the compounds or active metabolites in the central nervous system [1] | activity against HBV infections (HBV [2]) | activity against HIV infections (HIV [3]) | toxicity against bone marrow progenitor cells [4] | IC50 (HIV [5]) | anti-HBV activity (HBV [6])
1 | Nc1nc(NC2CC2)c2ncn([C@H]3C=C[C@@H](CO)C3)c2n1 [Compound 1, (1S,4R)-cis-4-[2-amino-6-(cyclopropylamino)-9H-purin-9-yl]-2-cyclopentene-1-methanol] | capable of penetrating the blood-brain barrier | high levels | especially potent activity; also recorded: exceptionally potent activity | especially potent activity; also recorded: exceptionally potent activity | significantly lower toxicity | 4 ± 1.4 µM | 
2 | CN(c1nc(N)nc2c1ncn2[C@H]1C=C[C@@H](CO)C1)C1CC1 [Compound 3, (1S,4R)-cis-4-[2-amino-6-(N-cyclopropyl-N-methylamino)-9H-purin-9-yl]-2-cyclopentene-1-methanol] | capable of penetrating the blood-brain barrier | high levels | especially potent activity | especially potent activity |  |  | potent anti-HBV activity
